Experimental data taken from patent publication US20230381082A1, “PHOTOPROTECTIVE COSMETIC COMPOSITIONS COMPRISING XANTHOMMATIN AS AN ANTIOXIDANT AND UV-FILTER STABILIZER” (SEASPIRE, INC., priority 2020, published 2023).
Values after ≈ are worked out from the molar mass of the structure shown. Values joined by “and” are separate entries in the source; they are usually repeats but may differ in a detail not shown here. Equal values may be shown once. “Also recorded” adds a separate entry of the source. Read-outs that look alike come from different tables or passages of the source.

What was measured:
[1] = UV-boosting properties: UV absorption of chemical UV filters alone and in combination; format: physicochemical; conditions: for reduction of avobenzone UV-A performance: filter combined with avobenzone
Description: FIGS. 9-11 show the UV absorption behavior of chemical UV filters octinoxate, avobenzone, and oxybenzone, alone, in combination with avobenzone, and in combination with xanthommatin small molecules in unsaturated solution (0.03 wt %).

[2] = Oxygen Radical Antioxidant Capacity (ORAC) assay; conditions: for AUC: single antioxidant, 40 uM; for antioxidant activity/capacity compared to known standards (Trolox, vitamin C): 90 minutes at 37° C.
Description: The ORAC assay measures the antioxidant capacity of biomolecules based on the oxidation of a fluorescein probe by peroxyl radicals (Fluorescence decreases as antioxidant capacity decreases).
The antioxidant properties of ammonium xanthommatin (referred to herein as “xanthommatin”) in an unsaturated solution were compared to known standard antioxidants. The results of the experiments are provided in FIGS. 1-3, illustrating the relative fluorescence value (RFU) over time (in seconds) for known antioxidants Trolox (a vitamin E analogue) and ascorbic acid compared to xanthommatin. Experiments were performed using 10, 20, and 40 μM Trolox, ascorbic acid, and ammonium xanthommatin (“Xa”) and compared to performance of 1:1 Trolox:Xa (20 μM: 20 μM and 40 μM: 40 μM) and 1:1 ascorbic acid:Xa (20 μM: 20 μM and 40 μM: 40 μM).
For antioxidant stabilizing/boosting experiments, the antioxidizing capacity and performance of ammonium xanthommatin only and ammonium xanthommatin blended with equimolar ascorbic acid (vitamin C) or Trolox (a vitamin E analogue) over 90 minutes at 37° C. were tested using a standard Oxygen Radical Antioxidant Capacity (ORAC) Assay. The ORAC assay measured the antioxidant capacity of biomolecules based on the oxidation of a fluorescein probe by peroxyl radicals (Fluorescence decreases as antioxidant capacity decreases). The ORAC assay is described in detail at https://www.cellbiolabs.com/sites/default/files/STA-345-orac-assay-kit.pdf, the contents of which are incorporated by reference herein. […] FIG. 19 provides half life measurements of ammonium xanthommatin in solution compared to vitamin C in solution when assayed at the same concentration. […] FIGS. 20 and 21, respectively, show the performance of vitamin C and vitamin E is extended when combined with ammonium xanthommatin.

[3] = Absorbance of xanthommatin alone and with FDA approved organic UV filters, 280-500 nm; format: physicochemical; conditions: 0.6 mM in DMSO
Method: The performance of ammonium xanthommatin was tested as a broad-spectrum absorber to assess whether the natural optical features of xanthommatin could be used to boost the UV performance of low (<0.2 mM) concentrations of organic UV filters. Xanthommatin's absorbance capabilities were tested alone in solution (FIG. 14) and in combination with FDA approved organic UV filters (FIGS. 15 and 16) over a spectral range of 280-500 nm. We observed a clear relationship between increasing concentrations of xanthommatin and the absorption of UV through visible light (FIG. 14). […] When xanthommatin was combined with the chemical UV filters, a significant increase in both the UVB (300 nm) and UVA (360 nm) range was achieved across all filters tested, where we observed at least a 50% increase in UVA and B performance upon addition with xanthommatin (FIG. 16).

[4] = UV-filter stabilizing properties: UV absorption of chemical UV filters with xanthommatin, day 1 and day 16; format: physicochemical; conditions: xanthommatin at about 0.01 wt %
Description: This boost in stability in the presence of unsaturated solutions of xanthommatin was consistent across all chemical filters tested, including homosalate, octisalate, octocrylene, oxybenzone, and octinoxate. Between 10-100% UV filtering retention was observed over the course of weeks. Solutions including unsaturated solutions of one or more phenoxazone and/or phenoxazine compound, a precursor or derivative thereof, or a salt of any of the foregoing (e.g., xanthommatin, a precursor or derivative thereof, or a salt of any one of the foregoing, such as ammonium xanthommatin) may also boost the stability of UV-filters in the presence of solar simulated light, or solar light.
The UV-filter stabilizing properties of unsaturated solutions of xanthommatin were explored by comparing the behavior of UV-filter stabilizers over time to UV-filter stabilizers in combination with xanthommatin. As shown in FIGS. 4-8, the addition of unsaturated solutions of xanthommatin to solutions including oxybenzone (FIGS. 4A and 4B), avobenzone (FIGS. 5A and 5B), octi and homo-salate (FIGS. 6A and 6B), octinoxate (FIGS. 7A and 7B) and octocrylene (FIGS. 8A and 8B) increased the UV absorption between about 240 and about 310 nm on day 1, relative to the chemical UV filters alone. […]

[5] = SPF and critical wavelength of xanthommatin in solution; format: physicochemical
Description: In certain embodiments, the compositions of the present application provide sun protection. In certain embodiments, the compositions provide an SPF of at least about 15, 30, 60, 100, or other suitable amount of protection. In certain embodiments, the amount of phenoxazone and/or phenoxazine compound, a precursor or derivative thereof, or a salt of any of the foregoing (e.g., xanthommatin, a precursor or derivative thereof, or a salt of any one of the foregoing, such as ammonium xanthommatin) in the composition may be altered or adjusted in order to provide a particular SPF. In certain embodiments, the amount of UV-filtering material (e.g., a UV-absorbing compound or a UV-scattering particle) in the composition may be altered or adjusted in order to provide a particular SPF. […]
SPF was calculated using the derived Mansur equation (Sayre, R. M., et al., A comparison of in vivo and in vitro testing of sunscreening formulas. Photochemistry and Photobiology, 1979. 29(3): p. 559-566) according to Equation 1, SPF=CFΣ290^320EE(λ)I(λ)Abs(λ), where EE (λ) represents the erythemal effect spectrum; I(λ) is solar intensity spectrum; Abs(a) absorbance of UV-filter; CF is the correction factor (=10). […] The calculated SPF values were rounded to the nearest whole number. […]

[6] = test system: BALB/c 3T3 mouse fibroblast cell lines; assay: in vitro 3T3 NRU phototoxicity assay; format: cell-based
Method: Given the UV filter-boosting features of xanthommatin, we next tested its cytotoxicity with and without exposure to a noncytotoxic dose of UVA light (from 315 to 400 nm and a measuring range between 0-199.9 mW/cm2). In these experiments, cytotoxicity was expressed as a concentration dependent reduction of a neutral red dye uptake within BALB/c 3T3 mouse fibroblast cell lines after treatment both with and without the presence of UVA exposure. […] Instead, the mean photo effect was calculated using Equation 5,
where, the photo effect (PE) at any concentration (C) is defined as the product of the response effect (REC) and the dose effect (DEC) concentrations. MPE values of 0.019, 0.199, and 0.042 were measured for the three independent experiments with xanthommatin. […] In this figure, the grey lines represent data collected in the absence of UVA (−UVA), and the black lines represent data collected with exposure to UVA (+UVA). Data was collected for three independent experiments.
Since the toxicological endpoint of this in vitro 3T3 NRU phototoxicity assay was developed and validated in a joint EU/COLIPA project, this assay is a well-recognized in vitro alternative to the various in vivo tests in use.

[7] = avobenzone combinations, Xa 0.03 wt %

COc1ccc(C(=O)c2ccccc2)c(O)c1 [Oxy control, oxybenzone]
reduction of avobenzone UV-A performance [1]: about 46% | UV absorption 290 nm ([1]; oxybenzone, Xa 0.03 wt %): 2 | UV absorption 360 nm ([1]; oxybenzone, Xa 0.03 wt %): 0.31

CCCCC(CC)COC(=O)C=Cc1ccc(OC)cc1 (centres unmarked) [octinox control, octinoxate]
reduction of avobenzone UV-A performance [1]: ~56% | UV absorption 310 nm ([1]; octinoxate, Xa 0.03 wt %): 2.53 | UV absorption 360 nm ([1]; octinoxate, Xa 0.03 wt %): 0

Cc1c(C)c2c(c(C)c1O)CCC(C)(C(=O)O)O2 (centres unmarked) [Trolox, reference compound]
AUC [2]: 55

O=C1O[C@H]([C@@H](O)CO)C(O)=C1O [AA, ascorbic acid, reference compound]
AUC [2]: 55

NC(CC(=O)c1cccc2oc3cc(=O)c4[nH]c(C(=O)O)cc(=O)c4c-3nc12)C(=O)O (centres unmarked) [xanthommatin, Ammonium xanthommatin]
absorption profile compared to pure organic UV filters [3]: broader profile that spanned the UVB through visible light regions | antioxidant activity/capacity compared to known standards (Trolox, vitamin C) [2]: comparable activity to vitamin c and vitamin e; also recorded: comparable anti-oxidizing capacity to known antioxidant standards | antioxidant activity/capacity compared to known standards (Trolox, vitamin C) ([2]; listed as ammonium xanthommatin): comparable antioxidizing capacity to known antioxidant standards | half life in solution compared to vitamin C ([2]; assayed at the same concentration): two times longer than vitamin C | relative fluorescence value (RFU) over time ([2]; compared to antioxidant alone, 10, 20, 40 μM): maintain a high RFU value for greater lengths of time | extension of the performance of vitamin C when combined with ammonium xanthommatin ([2]; equimolar blend): 23% | extension of the performance of vitamin E when combined with ammonium xanthommatin ([2]; equimolar blend): 9% | AUC [2]: 56 | effect on UV absorption and stability of chemical UV filters [4]: enhances the UV absorption properties of the chemical UV filters and stabilizes the chemical UV filters over time | boost of performance of avobenzone ([1]; xanthommatin at 0.03 wt %): up to 109% | enhancement of UVB absorbing power of octinoxate and oxybenzone ([1]; xanthommatin at 0.03 wt %, in some cases): more than 250% | boost of activity of avobenzone in UV-A (360 nm) ([1]; xanthommatin at about 0.03 wt %): about 9% | boost of activity/performance of avobenzone in UV-B (300 nm) ([1]; xanthommatin at about 0.03 wt %, or second filter): ~250% | critical wavelength [5]: 385 nm | phototoxicity classification [6]: not phototoxic; also recorded: neither phototoxic nor a photoirritant | EC50 ([6]; −UVA): no EC50-value could be calculated | relative cell viability at the highest test item concentration ([6]; −UVA controls, three independent experiments): 88.5% and 99.3% and 100.6%

CN(C)CCCN1c2ccccc2Sc2ccc(Cl)cc21 [chlorpromazine, reference compound]
EC50 ([6]; Mus musculus, BALB/c3T3, light or radiation study, +UVA, exp. 1, read-out: EC50): 0.221 mg/L (≈ 0.693 µM) | PIF (photo-irritation-factor = EC50 (−UVA)/EC50(+UVA)) ([6]; exp. 1-3): 37.81 and 37.74 and 40.33

COc1ccc(C(=O)CC(=O)c2ccc(C(C)(C)C)cc2)cc1 [avo control, avobenzone]
UV absorption 300 nm [1, 7]: 0.31 | UV absorption 360 nm [1, 7]: 1.49
